Assay results taken from ChEMBL document CHEMBL1201862, “PubChem BioAssay data set” (2004).
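1) Cells in 96-well plates. 2) Compound, 48 h, 5 concentrations. 3) Linear interpolation between surrounding doses. 4) Unreached endpoint = highest concentration. The concentration for 50% growth inhibition is given as GI50.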 The source made the active and inactive calls. Cut-off read from the data, not from the text of the source: active = GI50 up to about 1.1 µM and inactive = higher.

Tests used:
Assay in all cases: NCI tumour cell line growth inhibition, 48 h
A498 = tested on: A498
ACHN = tested on: ACHN
BT-549 = tested on: BT-549
COLO 205 = tested on: COLO 205
HCC 2998 = tested on: HCC 2998
HT-29 = tested on: HT-29
K562 = tested on: K562
KM12 = tested on: KM12
LOX IMVI = tested on: LOX IMVI
M14 = tested on: M14
MCF7 = tested on: MCF7
MDA-MB-435 = tested on: MDA-MB-435
Malme-3M = tested on: Malme-3M
NCI-H226 = tested on: NCI-H226
NCI/ADR-RES = tested on: NCI/ADR-RES
SN12C = tested on: SN12C
TK-10 = tested on: TK-10
UACC-257 = tested on: UACC-257
UACC-62 = tested on: UACC-62
UO-31 = tested on: UO-31

In the case of `CCN(CC)CCOc1ccc(N2Cc3cc(OC)c(OC)cc3C2=O)cc1`, the GI50 (A498) was > 100 µM (inactive), the GI50 (ACHN) was > 100 µM (inactive) and the GI50 (BT-549) was > 100 µM (inactive). The GI50 (COLO 205) was > 100 µM (inactive), the GI50 (HCC 2998) was > 100 µM (inactive) and the GI50 (HT-29) was > 100 µM (inactive). For the same compound, the GI50 (K562) was > 100 µM (inactive), the GI50 (KM12) was > 100 µM (inactive) and the GI50 (LOX IMVI) was > 100 µM (inactive). For the same compound, the GI50 (M14) was > 100 µM (inactive), the GI50 (MCF7) was > 100 µM (inactive) and the GI50 (MDA-MB-435) was > 100 µM (inactive). For the same compound, the GI50 (Malme-3M) was > 100 µM (inactive), the GI50 (NCI-H226) was > 100 µM (inactive) and the GI50 (NCI/ADR-RES) was > 100 µM (inactive). The GI50 (SN12C) was > 100 µM (inactive), the GI50 (TK-10) was > 100 µM (inactive) and the GI50 (UACC-257) was > 100 µM (inactive). The GI50 (UACC-62) was > 100 µM (inactive) and the GI50 (UO-31) was < 0.01 µM (active).

With `N#CC(C#N)=C1C(=O)NC(N)=C1C#N` the GI50 (A498) was > 100 µM (inactive), the GI50 (ACHN) was > 100 µM (inactive) and the GI50 (BT-549) was > 100 µM (inactive). For the same compound, the GI50 (COLO 205) was > 100 µM (inactive), the GI50 (HCC 2998) was > 100 µM (inactive) and the GI50 (HT-29) was > 100 µM (inactive). For the same compound, the GI50 (K562) was > 100 µM (inactive), the GI50 (KM12) was > 100 µM (inactive) and the GI50 (LOX IMVI) was > 100 µM (inactive). The GI50 (M14) was > 100 µM (inactive), the GI50 (MCF7) was > 100 µM (inactive) and the GI50 (MDA-MB-435) was > 100 µM (inactive). The GI50 (Malme-3M) was > 100 µM (inactive), the GI50 (NCI-H226) was > 100 µM (inactive) and the GI50 (NCI/ADR-RES) was > 100 µM (inactive). The GI50 (SN12C) was > 100 µM (inactive), the GI50 (TK-10) was > 100 µM (inactive) and the GI50 (UACC-257) was > 100 µM (inactive). The GI50 (UACC-62) was > 100 µM (inactive) and the GI50 (UO-31) was > 100 µM (inactive).
